Experimental data: patent US20250101028A1, “HETEROCYCLIC COMPOUNDS, COMPOSITIONS THEREOF, AND METHODS OF TREATMENT THEREWITH” (BeiGene, Ltd., priority 2022, published 2025)

What was measured:
[1] = target: T1, GST-tagged GDP-loaded KRAS G12V (amino acids 1-169) (Homo sapiens, UniProt P01116, G12V); test: KRAS G12V probe displacement assay (TR-FRET); type: binding; conditions: displacement of biotinylated probe 2 from GDP-loaded KRAS G12V
T1 construct: GST-tagged GDP-loaded KRAS G12V (amino acids 1-169); made in house; host or cells: E. coli
Outline: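 GST-tagged GDP-loaded KRAS 1-169 (WT 3 nM; G12V 2 nM final) preincubated 1 h at 24 °C with serially diluted compound in HEPES pH 7.5 buffer, then biotinylated probe added (probe 1 60 nM for WT; probe 2 2.5 nM for G12V), 1 h. Anti-GST-Tb/streptavidin-XL665 TR-FRET 665/620 ratio; IC50 by four-parameter fit.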

[2] = target: T2, GST-tagged GDP-loaded KRAS G12D (amin acids 1-188) (Homo sapiens, UniProt P01116, G12D); test: KRAS G12D probe displacement assay (TR-FRET); type: binding; conditions: displacement of biotinylated probe 2 from GDP-loaded KRAS G12D
T2 construct: GST-tagged GDP-loaded KRAS G12D (amin acids 1-188); made in house; host or cells: E. coli
Experimental: KRAS WT and KRAS G12D Probe Displacement Assay
This assay was used to identify compounds which bind to GDP-loaded KRAS protein and are able to displace a biotinylated probe occupying the KRAS binding site. GST-tagged GDP-loaded WT KRAS (amino acids 1-188) and GST-tagged GDP-loaded KRAS G12D (amin acids 1-188) were expressed in E. coli and purified in house. All protein and reaction solutions were prepared in assay buffer containing 50 mM HEPES pH7.5, 50 mM NaCl, 1 mM MgCl2, 1 mM TCEP, 0.01% BSA, and 0.008% Brij-35. Purified WT KRAS (3 nM final concentration) or KRAS G12D protein (0.5 nM final concentration) was incubated with a 3-fold serially diluted compound in the assay plate (384 well microplate, black, Corning). Plates are incubated at 24° C. for 1 hr. Following the incubation, biotinylated probe 1 (60 nM final assay concentration) for WT KRAS and biotinylated probe 2 (4 nM final assay concentration) for KRAS G12D was added to the assay plate, respectively. After 1 hr incubation at 24° C., Mab Anti-GST-Tb cryptate (Cisbio) and Streptavidin-XL665 (Cisbio) were added and further incubated at 24° C. for another 1 hr. The TR-FRET signals (ex337 nm, em665 nm/620 nm) were read on BMG PHERAstar FSX instrument. The inhibition percentage of KRAS protein binding with biotinylated probe in presence of increasing concentrations of compounds was calculated based on the ratio of fluorescence at 665 nm to that at 620 nm. The IC50 value of each compound was calculated from fitting the data to the four-parameter logistic model by Dotmatics.

[3] = tested on: pERK1/2(THR202/TYR204) level, SW620 cell line; test: KRAS G12V pERK assay (HTRF); type: cell-based; conditions: Homo sapiens, SW-620; SW620 cells, 2 hrs compound treatment
Experimental: (§1) SW620 cell line was used in this study. Cells were maintained in RPMI 1640 supplemented with 10% fetal bovine serum (Thermo Fisher), 50 units/mL penicillin and streptomycin (Thermo Fisher) and kept at 37° C. in a humidified atmosphere of 5% CO2 in air. Cells were reinstated from frozen stocks that were laid down within 30 passages from the original cells purchased. 40000 cells per well were seeded into a 96-well plate and incubated overnight. Cells were treated with a 10-point dilution series. The final compound concentration is from 0 to 10 M. After 2 hrs compound treatment, cells were lysed, and the pERK1/2(THR202/TYR204) level in the cell lysates was detected by HTRF kit (Cisbio). In brief, a total of 16 μL of cell lysate from each well of a 96-well plate was transferred to a 384-well white assay plate. Lysate from each well was incubated with 2 μL of Eu3+− cryptate (donor) labeled anti-phospho-ERK1/2 and 2 μL of D2 (acceptor) labeled anti-phospho-ERK1/2 antibodies (Cisbio) overnight in dark at room temperature. When donor and acceptor are in close proximity, excitation of the donor with laser triggers a Fluorescence Resonance Energy Transfer (FRET) towards the acceptor, which in turn fluoresces at 655 nm wavelength. FRET signals were measured using a PHERAstar FSX reader (BMG Labtech). IC50 determination was performed by fitting the curve of percent inhibition versus the log of the inhibitor concentration using Dotmatics.

[4] = tested on: pERK1/2(THR202/TYR204) level, AsPC-1 cell line; test: KRAS G12D pERK assay (HTRF); type: cell-based; conditions: Homo sapiens, ASPC1; AsPC-1 cells, 2 h compound treatment
Experimental: as §1, with “AsPC-1” for “SW620”, “RPMI-1640” for “RPMI 1640”, “30000” for “40000”, “μM.” for “M.”, “h” for “hrs”

T1 sequence (P01116 1-169 isoform P01116-2 G12V): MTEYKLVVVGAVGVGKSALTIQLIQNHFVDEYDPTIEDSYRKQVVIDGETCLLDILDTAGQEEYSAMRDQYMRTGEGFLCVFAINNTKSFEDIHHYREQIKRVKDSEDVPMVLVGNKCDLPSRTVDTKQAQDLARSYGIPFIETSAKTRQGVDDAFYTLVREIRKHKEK
T2 sequence (P01116 1-188 isoform P01116-2 G12D): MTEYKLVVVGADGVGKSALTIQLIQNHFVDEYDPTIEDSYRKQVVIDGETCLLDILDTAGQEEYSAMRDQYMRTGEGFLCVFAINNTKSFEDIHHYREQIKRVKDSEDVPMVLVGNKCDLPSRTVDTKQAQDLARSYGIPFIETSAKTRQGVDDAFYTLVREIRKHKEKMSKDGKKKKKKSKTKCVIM

With Nc1nc2c(-c3c(C(F)(F)F)cc4c(N5CCC6(CC5)CNC(=O)O6)nc(OC[C@@]56CCCN5C[C@H](F)C6)nc4c3F)ccc(F)c2s1 [Example 86, 8-(7-(2-amino-7-fluorobenzo[d]thiazol-4-yl)-8-fluoro-2-(((2R,7aS)-2-fluorotetrahydro-1H-pyrrolizin-7a(5H)-yl)methoxy)-6-(trifluoromethyl)quinazolin-4-yl)-1-oxa-3,8-diazaspiro[4.5]decan-2-one] the IC50 [1] was 0.8 nM, the IC50 [2] was 23 nM and the IC50 [3] was 715 nM. For the same molecule, the IC50 [4] was 5440 nM.
In the case of C[C@@H]1C[C@@H](C#N)CCN1c1nc(OC[C@@]23CCCN2C[C@H](F)C3)nc2c(F)c(-c3ccc(F)c4sc(N)c(C#N)c34)c(C(F)(F)F)cc12 [Example 100, (2R,4S)-1-(7-(2-amino-3-cyano-7-fluorobenzo[b]thiophen-4-yl)-8-fluoro-2-(((2R,7aS)-2-fluorotetrahydro-1H-pyrrolizin-7a(5H)-yl)methoxy)-6-(trifluoromethyl)quinazolin-4-yl)-2-methylpiperidine-4-carbonitrile], the IC50 [1] is reported as 0.74 nM, the IC50 [2] is reported as 0.34 nM and the IC50 [3] is reported as 18 nM. For the same molecule, the IC50 [4] was 56 nM.
C[C@@]1(O)CCCN(c2nc(OC[C@@]34CCCN3C[C@H](F)C4)nc3c(F)c(-c4cc(N)cc(Cl)c4C(F)(F)F)ncc23)C1 [Example 128, (R)-1-(7-(5-amino-3-chloro-2-(trifluoromethyl)phenyl)-8-fluoro-2-(((2R,7aS)-2-fluorotetrahydro-1H-pyrrolizin-7a(5H)-yl)methoxy)pyrido[4,3-d]pyrimidin-4-yl)-3-methylpiperidin-3-ol] was tested, and the IC50 [1] was 2.6 nM, the IC50 [2] was 1.2 nM and the IC50 [3] was 84 nM. For the same molecule, the IC50 [4] was 76 nM.
